Test system: MCF-7 cells
Assay: Epifluorescence microscopy, triple staining MDC / annexin V-FITC / propidium iodide
Format: cell-based, human
Conditions: Bp4eT 10 or 100 nM 72 h, rapamycin 1 nM 30 min
Procedure: Markers used to assess autophagy/apoptosis/necrosis in MCF-7 cells and changes of lysosomal and mitochondrial morphology were observed using an Eclipse Ti inverted epifluorescence microscope (Nikon, Tokyo, Japan), that was equipped with a cooled digital camera Zyla 5.5 sCMOS (Andor Technology, Belfast, UK), and NIS-Elements C 4.1 software (Laboratory Imaging, Prague, Czech Republic). The MCF-7 cells were seeded in 6-well plates with cover slips on the bottom at a density of 150,000 cells/well and incubated as described above in the presence or absence of 10 or 100 nM Bp4eT.
To assess the mechanism of cellular death after incubation with Bp4eT, triple staining with monodansyl cadaverine (MDC; 50 μM; λex = 390 nm; λem = 455 nm; Sigma-Aldrich), annexin V-FITC (5 μL/mL; λex = 495 nm; λem = 519 nm; Invitrogen, Carlsbad, CA, USA), and propidium iodide (5 μg/mL; λex = 560 nm; λem = 630 nm) was used. MDC is a marker of autophagosomes and lysosomes and results in blue fluorescence. As a positive control for autophagy, MCF-7 cells were incubated with 1 nM rapamycin (Sigma-Aldrich) for 30 min/37°C, which is an established inducer of autophagy. Annexin V has high affinity to phosphatidylserine, which is translocated to the surface of both early- and late-stage apoptotic cells. […]

CO[C@H]1C[C@@H]2CC[C@@H](C)[C@@](O)(O2)C(=O)C(=O)N2CCCC[C@H]2C(=O)O[C@H]([C@H](C)C[C@@H]2CC[C@@H](O)[C@H](OC)C2)CC(=O)[C@H](C)/C=C(\C)[C@@H](O)[C@@H](OC)C(=O)[C@H](C)C[C@H](C)/C=C/C=C/C=C/1C [rapamycin, reference compound] was tested, and the “Staining for autophagy/apoptosis/necrosis (MDC, annexin V-FITC, propidium iodide)” value was “enlarged cells with ample granular, cytoplasmic MDC staining”.

— paper PMC4604124, “In Vitro Characterization of the Pharmacological Properties of the Anti-Cancer Chelator, Bp4eT, and Its Phase I Metabolites” (PLoS ONE, 2015)
